How the values were obtained:
human TREK-1 channel = assay: Whole cell patch clamp of transiently transfected COS cells expressing human TREK-1; assay type: cell-based
From the text: The functional properties of the human TREK-1 channel were studied on the basis of transfected COS cells temporarily expressing the protein. Like the murine channel, the human channel is selective for potassium and is activated by cis-unsaturated fatty acids, volatile anesthetics and by stretching of the plasma membrane. The currents are recordings in the whole-cell configuration of the patch-clamp technique (imposed potential gradient from -130 to +100 mV). The inverse potential of the currents follow the equilibrium potential of potassium when the extracellular concentration of potassium ions climbs from 5 to 155 mM. […] When a pressure of -66 mmHg is applied on the membrane, the TREK-1 currents are activated in a reversible manner.
(§1) Subsequently, data were replayed and sampled using pClamp software.

mouse TRAAK = assay: Whole cell patch clamp of transfected COS cells expressing TRAAK; assay type: cell-based; settings: voltage ramp from holding potential -80 mV, room temperature, 0.8 mM chloroform, 1 mM halothane, 2 mM isoflurane, 0.6 mM diethyl ether (Figs. 1-3)
Experimental: as §1
General anesthetics were directly dissolved in saline solutions. All experiments were performed at room temperature (24°C). […] The electrophysiological measurements were performed within 45 minutes.
(§2) The actual concentrations of anesthetics were subsequently determined by means of a gas chromatography method (HP 6890 equipped with a DB624 column) using FID detection. Sampled (2.5 ml of solution) were collected prior to (t0) and after perfusion (t45) through the experimental setup. Solutions were collected using gas impermeable tubing and stored in sealed glass containers at 4°C for subsequent analysis. Samplings and measurements were performed in duplicate. […] In the dose effect curves, the threshold concentrations were estimated as concentrations producing an increase higher than 10% in current amplitude.

Mouse TREK-1 = settings: whole cell, voltage ramp from holding potential -80 mV, room temperature; 0.8 mM chloroform, 1 mM halothane, 2 mM isoflurane, 0.6 mM diethyl ether (Figs. 1-3)
Experimental: (§3) As performed herein, COS cells were seeded at a density of 20,000 cells per 35 mm dish 24 hours prior to transfection. Cells were transfected by the DEAE dextran protocol (1 µg DNA per plate). Mouse TREK-1 (GenBank Accession No. U73488), human TASK (GenBank Accession No. AF006823) and mouse TRAAK (GenBank Accession No. AF056492) fragments were amplified by polymerase chain reaction (PCR) and subcloned into the pIRES-CD8 vector. Transfected cells were visualized 48 hours after transfection using the anti-CD8 antibody coated beads method. For whole cell and excised patch experiments, the internal solution was 150 mM KCl, 3 mM MgCl2, 5mM EGTA and 10 mM HEPES at pH 7.2 with KOH and the external medium contained 150 mM NaCl, 5 mM KCL, 3 mM MgCl2, 1 mM CaCl2, 10 mM HEPES at pH 7.4 with NaOH. Cells were continuously superfused with a microperfusion system during the time course of the experiments (0.1 ml/min) performed at room temperature. A RK300 patch clamp amplifier (Biologic, Grenoble, France) was used for whole cell as well as single channel recordings. Ionic currents were monitored and recorded continuously using a DAT recorder (Biologic, Grenoble, France). Subsequently, data were replayed and sampled using pClamp software. Data analysis were performed using clampfit (pClamp) for whole cell recording as well as Biopatch (Biologic) software for single channel recordings. Membrane capacitance was measured during a […] hyperpolarizing step from a holding potential of -80 mV.
(§4) General anesthetics were directly dissolved in saline solutions. All experiments were performed at room temperature (24°C). Solutions were prepared every 3 hours in gas-tight bottles as stock solutions (calculated concentrations of 5 10 mM). Serial dilutions were prepared just prior to the electrophysiological experiment. 2.5 ml of each experimental solution at the desired concentration was placed in a syringe connected to the experimental superfusion system. The electrophysiological measurements were performed within 45 minutes.
as §2

human TASK = settings: whole cell, voltage ramp from holding potential -80 mV, room temperature; 0.8 mM chloroform, 1 mM halothane, 2 mM isoflurane, 0.6 mM diethyl ether (Figs. 1-3)
Experimental: as §3, §4, §2

[1] = test system: COS cells expressing TREK-1; settings: 0.8 mM chloroform; not in mock-transfected cells, n = 5
Experimental: As performed herein, COS cells were seeded at a density of 20,000 cells per 35 mm dish 24 hours prior to transfection. Cells were transfected by the DEAE dextran protocol (1 µg DNA per plate). […] Transfected cells were visualized 48 hours after transfection using the anti-CD8 antibody coated beads method. For whole cell and excised patch experiments, the internal solution was 150 mM KCl, 3 mM MgCl2, 5mM EGTA and 10 mM HEPES at pH 7.2 with KOH and the external medium contained 150 mM NaCl, 5 mM KCL, 3 mM MgCl2, 1 mM CaCl2, 10 mM HEPES at pH 7.4 with NaOH. Cells were continuously superfused with a microperfusion system during the time course of the experiments (0.1 ml/min) performed at room temperature. A RK300 patch clamp amplifier (Biologic, Grenoble, France) was used for whole cell as well as single channel recordings. Ionic currents were monitored and recorded continuously using a DAT recorder (Biologic, Grenoble, France). Subsequently, data were replayed and sampled using pClamp software. […] Membrane capacitance was measured during a 10 V hyperpolarizing step from a holding potential of -80 mV. […]
General anesthetics were directly dissolved in saline solutions. […] Solutions were prepared every 3 hours in gas-tight bottles as stock solutions (calculated concentrations of 5 10 mM). […]

Row | SMILES | effect on human TREK-1 currents (human TREK-1 channel; arachidonic acid 10 µM in the bath) | effect on TRAAK K+ current (mouse TRAAK) | effect on TREK-1 K+ current (Mouse TREK-1) | effect on TASK K+ current (human TASK) | effect on human TREK-1 currents (human TREK-1 channel; concentrations employed in general anesthesia) | effect on membrane potential of COS cells expressing TREK-1 [1]
1 | CCCCC/C=C\C/C=C\C/C=C\C/C=C\CCCC(=O)O [arachidonic acid] | induced activation | – | – | – | – | –
2 | FC(F)OC(Cl)C(F)(F)F (stereo not drawn) [Isoflurane, isoflurane] | – | without altering | activated | activated | – | –
3 | FC(F)(F)C(Cl)Br (stereo not drawn) [halothane] | – | not TRAAK, were opened | opened | opened | induced activation | –
4 | CCOCC [Diethyl ether, diethyl ether] | – | did not affect | opened | decreased | – | –
5 | ClC(Cl)Cl [chloroform] | – | did not effect | strongly and reversibly activated | slightly depressed | – | reversibly and reproducibly hyperpolarized
